The NIST ThermoML archive (doi:10.1021/acs.jced.6b00483)
“And” between values parts separate entries of the source, which are not always exact repeats. Identical values can stand only once.

How the values were obtained:
[1] = Molar enthalpy of transition or fusion; conditions: Crystal 3; DSC
[2] = molar heat capacity at constant pressure; conditions: 101.33 kPa, Crystal 3, DSC
[3] = DSC

NC(N)=C([N+](=O)[O-])[N+](=O)[O-] [1,1-diamino-2,2-dinitroethene]
Conditions	Molar enthalpy of transition or fusion
[1]	0.623 kcal/mol and 0.676 kcal/mol

Conditions	Triple point temperature [K]	molar heat capacity at constant pressure [J/K/mol]
[2], 345 K	–	191.17
[2], 350 K	–	193.24
[2], 355 K	–	195.17
[2], 360 K	–	197.24
[2], 365 K	–	199.16
[2], 370 K	–	201.24
[2], 375 K	–	203.16
[2], 380 K	–	205.09
[2], 385 K	–	207.16
[3], Crystal 2	439.2	–
[3], Crystal 3	393.7	–
